In patent US20230128114A1, “METHODS AND COMPOSITIONS FOR TREATING OR PREVENTING AN INFLAMMATORY CONDITION” (priority 2020, published 2023):

Assay: Solubility of formulations for in vivo analysis (visual observation)
Assay type: physicochemical
Text: Cannabidiol (CBD) and hydroxychloroquine (HCQ), were purchased by Pharmacology Discovery Services Taiwan, Ltd. The formulations are summarised in Table 3.

In the case of C[C@@H]1C[C@H]2[C@@H]3CCC4=CC(=O)C=C[C@]4(C)[C@@]3(F)[C@@H](O)C[C@]2(C)[C@@]1(O)C(=O)CO [Dexamethasone], the Solubil. is reported as “I”.
